# Laboratory results from patent EP1247803A2, “Indolinone compounds suitable for modulation of protein kinases” (Sugen, Inc., priority 1996, dated 1998).
# How the values were obtained:
# [1] = biological target: T1, EGFR (Homo sapiens, UniProt P00533); test: EGFR ELISA assay (in vitro kinase activity, EGFR captured from A431 cell lysate); type: biochemical; set-up: concentration or dose not given beside the values
# T1 construct: Add 7 ug A431 cell lysate per well (EGFR source); endogenous in cells; host or cells: A431
# Method in brief: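 Receptor autophosphorylation was read by ELISA: anti-phosphotyrosine serum and an HRP-linked secondary with ABTS substrate, absorbance at 410 nm (reference 630 nm). The reaction ran 5 min with 3 µM ATP and 5 mM MnCl2 and was quenched by 20 mM EDTA. Compounds were first incubated 30 min with antibody-captured EGFR from A431 cell lysate.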
# [2] = test system: MET; test: MET biochemical kinase assay; set-up: species or system human; concentration or dose not given beside the values
# Method in brief: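 In this format, tyrosine phosphorylation of plate-captured human MET is followed in vitro after compound addition in ATP/divalent-cation buffer, detected by anti-phosphotyrosine-HRP with TMB substrate.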
# [3] = biological target: PDGF-R (Homo sapiens, UniProt P09619); test: PDGF-R ELISA; type: cell-based
# Excerpt: A PDGF-R ELISA is described in International Patent Publication No. WO 96/40116, published December 19, 1996 by Tang et al.
# T1 sequence (P00533 25-1210): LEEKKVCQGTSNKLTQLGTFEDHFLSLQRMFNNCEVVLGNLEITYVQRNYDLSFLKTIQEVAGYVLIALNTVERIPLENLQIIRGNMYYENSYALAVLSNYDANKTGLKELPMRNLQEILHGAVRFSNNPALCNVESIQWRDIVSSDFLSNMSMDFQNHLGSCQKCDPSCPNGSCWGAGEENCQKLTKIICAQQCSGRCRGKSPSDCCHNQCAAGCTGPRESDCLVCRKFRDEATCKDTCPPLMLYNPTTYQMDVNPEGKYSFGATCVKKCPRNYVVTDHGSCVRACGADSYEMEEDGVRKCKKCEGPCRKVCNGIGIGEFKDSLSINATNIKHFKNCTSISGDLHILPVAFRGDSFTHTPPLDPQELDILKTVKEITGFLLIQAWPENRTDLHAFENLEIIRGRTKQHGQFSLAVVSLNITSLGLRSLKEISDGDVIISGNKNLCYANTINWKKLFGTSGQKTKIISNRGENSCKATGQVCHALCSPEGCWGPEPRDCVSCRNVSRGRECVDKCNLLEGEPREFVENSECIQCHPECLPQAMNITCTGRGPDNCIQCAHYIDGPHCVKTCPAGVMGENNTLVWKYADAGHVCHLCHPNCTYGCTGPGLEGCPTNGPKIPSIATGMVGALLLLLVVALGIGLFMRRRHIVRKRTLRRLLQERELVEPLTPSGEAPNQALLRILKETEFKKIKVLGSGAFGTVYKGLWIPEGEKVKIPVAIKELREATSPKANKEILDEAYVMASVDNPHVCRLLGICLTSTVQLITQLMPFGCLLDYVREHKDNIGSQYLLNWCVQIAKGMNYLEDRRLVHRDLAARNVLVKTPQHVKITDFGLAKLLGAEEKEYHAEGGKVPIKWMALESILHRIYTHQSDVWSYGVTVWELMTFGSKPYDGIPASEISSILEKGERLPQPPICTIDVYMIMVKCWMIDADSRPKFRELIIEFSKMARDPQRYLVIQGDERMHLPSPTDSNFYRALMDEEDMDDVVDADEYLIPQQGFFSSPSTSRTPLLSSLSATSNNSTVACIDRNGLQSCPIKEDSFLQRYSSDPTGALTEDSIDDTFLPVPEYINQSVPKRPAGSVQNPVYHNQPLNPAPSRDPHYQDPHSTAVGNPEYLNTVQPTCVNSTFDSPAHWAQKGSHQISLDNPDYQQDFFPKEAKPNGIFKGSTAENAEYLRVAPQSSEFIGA
# Sequence of PDGF-R (P09619 33-1106, species assumed): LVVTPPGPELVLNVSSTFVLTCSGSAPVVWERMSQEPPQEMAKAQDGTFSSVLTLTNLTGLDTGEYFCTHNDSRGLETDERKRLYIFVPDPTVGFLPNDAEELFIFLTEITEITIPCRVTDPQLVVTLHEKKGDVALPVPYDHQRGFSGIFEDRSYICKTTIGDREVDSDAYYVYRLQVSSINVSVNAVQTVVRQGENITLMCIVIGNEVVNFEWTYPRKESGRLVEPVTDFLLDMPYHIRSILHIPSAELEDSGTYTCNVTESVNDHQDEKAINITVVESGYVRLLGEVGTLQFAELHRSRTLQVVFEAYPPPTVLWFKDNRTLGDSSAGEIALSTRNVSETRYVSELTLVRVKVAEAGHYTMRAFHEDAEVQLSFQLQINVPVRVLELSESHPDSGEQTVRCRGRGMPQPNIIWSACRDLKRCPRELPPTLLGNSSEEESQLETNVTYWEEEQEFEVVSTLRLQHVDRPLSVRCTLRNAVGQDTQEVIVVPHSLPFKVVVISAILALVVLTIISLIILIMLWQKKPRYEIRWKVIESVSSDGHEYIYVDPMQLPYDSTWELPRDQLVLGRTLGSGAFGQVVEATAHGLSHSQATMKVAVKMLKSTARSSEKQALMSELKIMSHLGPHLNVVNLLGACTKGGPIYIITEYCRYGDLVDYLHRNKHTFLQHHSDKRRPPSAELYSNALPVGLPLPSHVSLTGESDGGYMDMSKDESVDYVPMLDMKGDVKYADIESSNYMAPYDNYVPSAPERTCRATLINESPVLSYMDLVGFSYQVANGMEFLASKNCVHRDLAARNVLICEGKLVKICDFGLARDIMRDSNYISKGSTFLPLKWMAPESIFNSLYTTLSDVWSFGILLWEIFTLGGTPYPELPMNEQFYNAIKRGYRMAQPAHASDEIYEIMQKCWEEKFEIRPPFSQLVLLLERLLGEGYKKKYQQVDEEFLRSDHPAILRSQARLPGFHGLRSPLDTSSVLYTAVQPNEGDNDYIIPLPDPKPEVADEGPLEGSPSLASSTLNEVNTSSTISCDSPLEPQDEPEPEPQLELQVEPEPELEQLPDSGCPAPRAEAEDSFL
SMILES,Biochem EGFR %Inhibition [1] [%],Met Kinase % Inhibition [2] [%],PDGF Kinase %Inhibition [3] [%]
CNS(=O)(=O)c1ccc2c(c1)C(=Cc1cc([N+](=O)[O-])ccc1O)C(=O)N2 [10733/D10],46.8,22.8,-10.1
CNS(=O)(=O)c1ccc2c(c1)C(=Cc1ccc(O)c(OC)c1[N+](=O)[O-])C(=O)N2 [10733/D11],33.7,31.6,-4.0
CC(C)(C)c1cc(C=C2C(=O)Nc3ccc(S(=O)(=O)Nc4ccc(C(F)(F)F)cc4)cc32)cc(I)c1OCc1ccccc1 [10733/E02],-1.3,60.5,20.8
